Test results from US5137897A, “2-substituted 4-(3-alkyl-5-tert.-butyl-4-hydroxyphenyl) thiazoles, processes for their preparation, pharmaceuticals containing them and their use” (Hoechst Aktiengesllschaft, priority 1989, dated 1992).
Read-outs that look alike come from different tables or passages of the source.

Tests used:
[1] = system: LTB4 formation in mast cell cultures; assay: Influence on formation of LTB4 in mast cell cultures (rat); format: cell-based; settings: read-out: LTB4, Residual activity (%)
Procedure: (§1) Moreover, the substances according to the invention were also characterized in cellular leukocyte systems in vitro as inhibitors of arachidonic acid metabolites. To detect the lipoxygenase metabolites, human neutrophils stimlated by calcium ionophore A 23 187 (70 mcmol/1) were incubated with ^14 C-arachidonic acid (81 mcmol/1) and the principal metabolites formed after 15 minutes at 37° C., such as 5-hydroxyeicosatetraenoic acid (5-HETE) and the more strongly proinflammatory leukotriene B4 (LTB4) were determined quantitatively (Tab. 6) with the aid of a radio monitor after separation by HPLC. The influence on the proinflammatory arachiconic acid metabolites thromboxane and LTB4 in cultures prepared from rat mast cells was determined in a corresponding manner (Tab. 7).

[2] = system: Adjuvant arthritis (paw volume increase) in rats; assay: Adjuvant arthritis (method of Pearson), antiinflammatory action on the 5th day; format: in vivo, rat (male, Wistar-Lewis strain); settings: Rattus norvegicus, 120 h; for ED50: adjuvant arthritis, oral, determined graphically from dose-response curve; for inhibition in vivo at 50 mg/kg: po, 50 mg/kg p.o. once daily, 1st to 5th day, vs untreated control, read-out: Adjuvant arthritis (% inhibition at 50 mg/kg orally)
Procedure: The testing of the compounds of the formula I according to the invention for antiinflammatory action, influence on immunopathological processes, oxygen free radicaldeactivating properties and influence on arachidonic acid metabolism was carried out in the animal models and bioassays described in the following.
1. Adjuvant arthritis for influencing the antiinflammatory action (Table 2)
(§2) The investigations were carried out by the method of Pearson (Arthrit. Rheum. 1959, 2, 44). Male rats of a Wistar-Lewis strain having a body weight between 130 and 200 g were used as experimental animals. The compounds to be tested were administered orally (p. o.) once daily from the 1st to the 5th experimental day in doses of 50 mg per kg of body weight. The animals of one control group received only the vehicle. Each preparation group and the control group comprised 8 animals. The percentage reduction of the paw volume increase compared to that of the untreated control group was used as the criterion of action. The ED50 values were determined graphically from the dose-response curve.
(§3) 4-(3,5-Di-tert.-butyl-4-hydroxyphenyl)-2-methylthiazole i.e. the compound of the formula [drawing 26] according to US-A-4,535,165 mentioned at the beginning, was additionally included in this and the investigation below as a comparison preparation.

[3] = Free radical scavenger properties (reaction with DPPH); settings: reaction with DPPH at 20° C.; determined graphically
Procedure: a) Free radical scavenger properties The testing in this test, which allows conclusions on the antioxidative potential of a substance, was carried out according to Smith et al., Biochem, Pharmacol. 1987. 36, 1456. In this test, the reaction of the compounds according to the invention with the stable free radical 1,1-diphenyl-2-picrylhydrazyl (DPPH) is monitored optically at 20° C. The rate constant K and reaction orders n in Table 5 were determined graphically in the customary manner.

[4] = system: Adjuvant arthritis (Perper modification; paw volume) in rats; assay: Adjuvant arthritis (Perper modification), paw volume on the 21st day; format: in vivo, rat (male, Wistar-Lewis strain); settings: Rattus norvegicus, po, 504 h, 1st to 12th day; for inhibition in vivo at 2.5 mg/kg: 2.5 mg/kg/day; for inhibition in vivo at 5 mg/kg: 5 mg/kg/day
[5] = system: TXB2 formation in mast cell cultures; assay: Influence on formation of TXB2 in mast cell cultures (rat); format: cell-based; settings: read-out: TXB2, Residual activity (%)
Procedure: as §1

[6] = molecular target: T1, cyclooxygenase (Ovis aries, UniProt P05979); assay: Cyclooxygenase (microsomes) inhibition in vitro; format: biochemical, sheep
T1 construct: microsomal cyclooxygenase system (fraction from sheep seminal vesicles, Paesel, Frankfurt, Germany); purchased Paesel, Frankfurt, Germany; host or cells: sheep seminal vesicles (microsomal fraction)
T1 sequence (P05979 25-600): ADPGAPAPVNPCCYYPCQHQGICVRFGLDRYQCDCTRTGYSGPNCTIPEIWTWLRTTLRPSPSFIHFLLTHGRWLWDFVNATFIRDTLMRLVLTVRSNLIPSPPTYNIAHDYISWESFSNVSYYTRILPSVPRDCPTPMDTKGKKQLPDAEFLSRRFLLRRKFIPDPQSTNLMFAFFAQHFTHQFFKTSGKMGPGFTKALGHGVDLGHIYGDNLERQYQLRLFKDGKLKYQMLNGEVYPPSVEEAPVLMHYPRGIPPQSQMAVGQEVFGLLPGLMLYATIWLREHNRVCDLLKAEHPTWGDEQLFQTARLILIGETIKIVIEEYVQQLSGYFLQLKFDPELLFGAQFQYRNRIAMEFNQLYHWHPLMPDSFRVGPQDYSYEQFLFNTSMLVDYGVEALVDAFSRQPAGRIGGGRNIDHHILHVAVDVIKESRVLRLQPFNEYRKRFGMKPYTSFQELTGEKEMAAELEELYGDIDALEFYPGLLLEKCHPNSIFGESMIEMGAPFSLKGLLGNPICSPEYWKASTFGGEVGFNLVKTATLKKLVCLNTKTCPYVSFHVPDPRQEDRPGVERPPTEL
Procedure: (§4) The inhibitory action of the compounds according to the invention is measured on the in vitro arachidonic acid degradation catalyzed by cyclooxycenase and lipoxycenase with the aid of the test systems described in Weithmann and Alpermann, Arzneim.-Forsch. 1985, 35, 947: The cyclooxygenase-catalyzed synthesis of prostaglandins from arachidonic acid is measured in the microsomal cyclooxygenase system (fraction from sheep seminal vesicles, Paesel, Frankfurt, Germany). The coenzyme is adrenaline, whose conversion to adrenochrome is monitored by spectrophotometry at 492 nm. Cis-9-cis-12-linoleic acid is incubated with lipoxygenase (L7127, Sigma, Deisenhofen, Germany) in the lipoxygenase system in vitro and the formation of conjugated double bonds taking place during the oxygenation reaction is monitored optically at 234 nm.
The inhibitor actions, or the inhibitor concentrations necessary for a 50 % inhibition of enzyme activity (IC50 values), have been determined for the following examples according to the invention:
Cyclooxygenase (microsomes)

[7] = system: Arthus reaction (paw volume increase) in rats; assay: Reverse passive Arthus reaction; format: in vivo, rat (male Sprague-Dawley)
Procedure: b) Reverse passive Arthus reaction
Male Sprague-Dawley rats having a body weight between 100 and 120 g. which had been divided into groups of 8 animals in each case, were used as experimental animals. The animals received a subplantar injection in the left hind paw of 0.5 mg of immunoglobulin in 0.1 ml of a sodium chloride solution 1 hour after oral administration of the test substance. After 4 hours, the Arthus reaction was measured, the percentage change in the paw volume increase compared to that of the control group treated only with vehicle being used as a measuring parameter for the action.

[8] = molecular target: T2, lipoxygenase (Glycine max, UniProt P08170); assay: Lipoxygenase (enzyme) inhibition in vitro; format: biochemical
T2 construct: purchased Sigma, Deisenhofen, Germany L7127
T2 sequence (P08170 1-839): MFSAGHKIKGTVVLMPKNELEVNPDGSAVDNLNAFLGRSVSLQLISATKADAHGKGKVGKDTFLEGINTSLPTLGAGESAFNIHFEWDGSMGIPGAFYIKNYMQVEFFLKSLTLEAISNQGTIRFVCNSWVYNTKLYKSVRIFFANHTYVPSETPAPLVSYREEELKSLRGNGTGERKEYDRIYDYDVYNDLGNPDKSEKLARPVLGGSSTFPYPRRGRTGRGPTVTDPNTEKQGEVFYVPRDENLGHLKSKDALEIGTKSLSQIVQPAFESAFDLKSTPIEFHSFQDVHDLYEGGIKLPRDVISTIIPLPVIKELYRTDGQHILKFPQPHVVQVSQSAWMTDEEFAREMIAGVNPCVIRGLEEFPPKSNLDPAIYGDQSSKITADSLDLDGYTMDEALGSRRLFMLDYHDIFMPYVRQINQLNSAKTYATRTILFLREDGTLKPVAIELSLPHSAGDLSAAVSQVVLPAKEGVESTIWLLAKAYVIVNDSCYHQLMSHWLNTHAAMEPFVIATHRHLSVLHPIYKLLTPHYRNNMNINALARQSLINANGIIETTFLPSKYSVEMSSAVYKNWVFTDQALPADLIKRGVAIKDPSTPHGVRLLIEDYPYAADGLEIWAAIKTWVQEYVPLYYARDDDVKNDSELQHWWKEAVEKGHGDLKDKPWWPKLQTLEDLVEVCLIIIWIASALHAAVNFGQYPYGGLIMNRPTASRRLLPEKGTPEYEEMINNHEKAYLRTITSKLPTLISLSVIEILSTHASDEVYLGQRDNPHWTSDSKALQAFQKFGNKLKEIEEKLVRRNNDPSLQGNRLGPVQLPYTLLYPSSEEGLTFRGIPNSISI
Procedure: as §4
The inhibitor actions, or the inhibitor concentrations necessary for a 50 % inhibition of enzyme activity (IC50 values), have been determined for the following examples according to the invention: […]

[9] = system: 5-HETE formation in human neutrophils; assay: Influence on 5-HETE formation in human neutrophils; format: cell-based; settings: Neutrophil
Procedure: as §1

[10] = system: LTB4 formation in human neutrophils; assay: Influence on LTB4 formation in human neutrophils; format: cell-based; settings: Neutrophil
Procedure: as §1

[11] = system: Adjuvant arthritis (Perper modification; paw volume) in rats; assay: Adjuvant arthritis (Perper modification), paw volume on the 21st day; format: in vivo, rat (male, Wistar-Lewis strain); settings: Rattus norvegicus, po, 504 h, 50 mg/kg/day, 1st to 12th day
Procedure: as §2, §3
a) Adjuvant arthritis (Perper modification)
The animals were only treated from the 1st to the 12th experimental day in the experimental arrangement described in item 1. After a treatment-free interval of 9 days, determination of the paw volume of the left and right hind paw was carried out on the 21st day (compare Table 3).

[12] = read-out: % inhibition on the 21st day, Left paw
[13] = read-out: % inhibition on the 21st day, Right paw

## CC(C)(C)c1cc(-c2csc(CCC(=O)O)n2)cc(C(C)(C)C)c1O [Example 3, 3-[4-(3,5-Di-tert.-butyl-4-hydroxyphenyl)thiazol-2-yl]propionic acid]
[1]; 1 μM
  activity at 1 µM: 94 ± 12%
[1]; 10 μM
  activity at 10 µM: 102 ± 9%
[1]; 100 μM
  activity at 100 µM: 78 ± 14%
[2]
  ED50: 0.9 mg/kg
  inhibition in vivo at 50 mg/kg: 84%
[3]
  reaction order n: < 1
[4]; [12]
  inhibition in vivo at 2.5 mg/kg: 65%
  inhibition in vivo at 5 mg/kg: 41%
[4]; [13]
  inhibition in vivo at 2.5 mg/kg: 59%
  inhibition in vivo at 5 mg/kg: 74%
[5]; 1 μM
  activity at 1 µM: 113 ± 49%
[5]; 10 μM
  activity at 10 µM: 94 ± 17%
[5]; 100 μM
  activity at 100 µM: 28 ± 10%

## CCOC(=O)CCc1nc(-c2cc(C)c(O)c(C(C)(C)C)c2)cs1 [Example 16]
[3]
  reaction order n: < 1
[6]
  IC50: 34 µM

## CCOC(=O)Cc1nc(-c2cc(C(C)(C)C)c(O)c(C(C)(C)C)c2)cs1 [Example 8]
[3]
  reaction order n: 1
[6]
  inhibition at 100 µM: 75%
[7]; 60 mg/kg orally
  % inhibition (Arthus reaction): 38%
[8]; Lipoxygenase (enzyme)
  IC50: 50 µM

## CC(C)(C)c1cc(-c2csc(CCC(=O)NO)n2)cc(C(C)(C)C)c1O [Example 7, 3-[4-(3 .-butyl-4-hydroxyphenyl)thiazol-2-yl]propionylhydroxamic acid]
[9]; 0.1 μM, n = 6, read-out: 5-HETE formation, Residual activity (%)
  activity at 0.1 µM: 89.2 ± 12.1%
[9]; 1 μM, n = 6, read-out: 5-HETE formation, Residual activity (%)
  activity at 1 µM: 87 ± 15.6%
[9]; 10 μM, n = 6, read-out: 5-HETE formation, Residual activity (%)
  activity at 10 µM: 39 ± 12.8%
[9]; 100 μM, n = 9, read-out: 5-HETE formation, Residual activity (%)
  activity at 100 µM: 1.7 ± 0.4%
[10]; 0.1 μM, n = 6, read-out: LTB4 formation, Residual activity (%)
  activity at 0.1 µM: 91 ± 13.2%
[10]; 1 μM, n = 6, read-out: LTB4 formation, Residual activity (%)
  activity at 1 µM: 74.3 ± 21.5%
[10]; 10 μM, n = 6, read-out: LTB4 formation, Residual activity (%)
  activity at 10 µM: 35 ± 17%
[10]; 100 μM, n = 9, read-out: LTB4 formation, Residual activity (%)
  activity at 100 µM: 1.7 ± 1.3%
[2]
  ED50: 2.4 mg/kg
  inhibition in vivo at 50 mg/kg: 83%
[3]
  reaction order n: 1
[6]
  inhibition at 100 µM: 75%

## COC(=O)C=Cc1nc(-c2cc(C(C)(C)C)c(O)c(C(C)(C)C)c2)cs1 [Example 12]
[3]
  reaction order n: 1
[8]; at 50 μM
  inhibition at 50 µM: 73%

## Cc1sc(CCC(=O)O)nc1-c1cc(C(C)(C)C)c(O)c(C(C)(C)C)c1 [Example 15]
[11]; [12]
  inhibition in vivo at 50 mg/kg: 39%
[11]; [13]
  inhibition in vivo at 50 mg/kg: 50%
[2]
  ED50: 2.6 mg/kg
  inhibition in vivo at 50 mg/kg: 67%
[3]
  reaction order n: < 1
[7]; 100 mg/kg orally
  % inhibition (Arthus reaction): 47%
[8]; at 100 μM
  inhibition at 100 µM: 78%
